From publication PMC10051477, “5,8-Dimethyl-9H-carbazole Derivatives Blocking hTopo I Activity and Actin Dynamics” (Pharmaceuticals, 2023)

Experiments:
[1] = target: T1, F-actin (labeled rabbit muscle actin) (Oryctolagus cuniculus, UniProt P68135); experiment: In vitro F-actin depolymerization assay; type: biochemical; settings: 5 µM added after 1 h polymerization
T1 construct: fluorescent label (chemical); purchased Abcam; host or cells: rabbit muscle
Experimental: Moreover, we performed the F-actin depolymerization assay to verify whether compounds 3 and 4 could induce the actin depolymerization as well as the LA does (Figure 5, panel B). For this purpose, we started the actin polymerization for one hour under the same experimental conditions used previously. Then, we added the compounds or the reference molecules at the concentration of 5 µM and monitored the reactions for an additional hour. […] The addition of CB was not able to produce the same effect of LA. […] Contrarily, both the compounds were able to induce an important depolymerizing effect on the F-actin, most evident in the first 7 min after the exposure. Particularly, compounds 3 and 4 produced final values of approximately 14,000 and 12,000 RFU, respectively. […] This combined effect leads to a disorganization of the intracellular actin network.
(§1) An Actin Polymerization/Depolymerization Assay Kit, purchased from Abcam, was employed to assess the ability of compounds 3 and 4 to interfere with the actin polymerization and depolymerization processes. To perform the essays, the manufacturer’s instructions were followed with some modifications. In particular, polymerization assay was carried out incubating in a white 96-well plate the reconstituted actin with supplemented Buffer G, compounds 3 and 4 and then Buffer P was added in order to induce actin polymerization. For the Actin Depolymerization Assay, the actin polymerization was first induced, incubating supplemented Buffers P and G at room temperature for one hour. Then, compounds 3 and 4 were added at a concentration of 5 μM. Latrunculin A (LA) and Cytochalasin B (CB) were utilized as positive control at a concentration of 5 μM. For both the assays, the assemblage of the actin filaments was defined by measuring the fluorescence (Ex/Em: 365/410 nm) in kinetic mode for 1 h at room temperature in a microplate reader.

[2] = target: T2, labeled rabbit muscle actin (Oryctolagus cuniculus, UniProt P68135); experiment: In vitro actin polymerization assay; type: biochemical; settings: 5 µM, 1 h, room temperature; vehicle plateau about 25,000 RFU
T2 construct: fluorescent label (chemical); purchased Abcam; host or cells: rabbit muscle
Excerpt: With the aim to confirm the immunofluorescence results and substantiate whether compounds 3 and 4 could inhibit the actin polymerization mechanism and/or boost the F-actin depolymerization, we employed a fluorescent-labeled purified rabbit actin. LA and cytochalasin B (CB) were used as positive controls for both the polymerization inhibition and F-actin subunits dissociation, or only the polymerization inhibition, respectively. In the negative control reaction (only vehicle), actin monomers undergo a normal polymerization, as visible in Figure 5, panel A. The reaction curve rises in approximately 5 min to a value of about 25,000 RFU (plateau) which remains almost unvaried until the end of the experiment. Contrariwise, the two reference molecules, i.e., LA and CB, used at the concentration of 5 µM, braked the actin polymerization, mostly LA rather than CB, under the adopted experimental conditions, and the LA curve dropped until a value of about 8000 RFU at the reaction end.
as §1

MDA-MB-231 cells = experiment: MTT assay, MDA-MB-231 cell viability; type: cell-based; settings: Homo sapiens, 72 h, mean ± standard deviation
Experimental: (§2) The inhibition of cancer cell growth exerted by the five considered compounds (1–5) has been evaluated in vitro against two models of breast cancer, namely the estrogen receptor positive (ER+) MCF-7 and the triple negative MDA-MB-231 human breast cancer cells (lacking ER, PR, and HER-2/Neu amplification), together with the normal counterpart, namely the non-malignant breast epithelial cells MCF-10A. […] Moreover, no effects were recorded against the MCF-7 cells, at least until the concentration of 100 μM. […] Thus, the two lead compounds were chosen for subsequent studies aiming at individuating the molecular mechanisms underlying the observed anticancer activity.
(§3) MTT assays (Sigma Aldrich (St.Louis, MO, USA)) were employed to evaluate the in vitro anticancer activities of all the studied compounds, as previously described. The compounds were tested at different concentrations (0.1-1-10-25-50-100 μM) for 72 h. The IC50 values were calculated from the percent (%) of control using GraphPad Prism 9 (GraphPad Software, La Jolla, CA, USA).

MCF-7 cells = experiment: MTT assay, MCF-7 cell viability; type: cell-based; settings: Homo sapiens, MCF7, 72 h, mean ± standard deviation
Experimental: as §3

MCF-10A cells = experiment: MTT assay, MCF-10A normal cell viability; type: cell-based, human; settings: Homo sapiens, MCF-10A, 72 h, non-malignant breast epithelial cells, mean ± standard deviation
Experimental: as §2, §3

[3] = system: actin system in MDA-MB-231 cells; experiment: Actin immunofluorescence in MDA-MB-231 cells; type: cell-based, human; settings: MDA-MB-231, 24 h; compounds at their IC50 values, LA 0.1 µM
Experimental: In order to determine whether the lead compounds 3 and 4 may effectively regulate the actin system, we employed both the immunofluorescence and in vitro direct enzymatic assays. […] As negative and positive controls, we used the only vehicle (DMSO) and latrunculin A (LA) at a concentration of 0.1 µM, respectively. After processing, the cells were observed under a fluorescent microscope, (see experimental section for the details). […] Moreover, the latter looked brighter and stocked in the cytoplasm in dot-like structures or thicker fibers. Again, the MDA-MB-231 cells, under exposure to compounds 3 and 4, lost their shape (Figure 4, compounds 3 and 4, panels B), as we observed under LA treatment, and with a very similar arrangement of the actin network.
The cells were plated and further processed, as previously indicated. Specifically, the rabbit anti-β-Actin (Santa Cruz Biotechnology, Dallas, TX, USA), diluted 1:100 in bovine serum albumin (BSA) 2%, was used as primary antibody and incubated overnight at 4 °C. The secondary antibody, Alexa Fluor® 488 conjugate goat-anti-rabbit, was diluted 1:500 and incubated for 2 h at 37 °C. DAPI (4′,6-diamidino-2-phenylindole, Sigma Aldrich, Milan, Italy) 0.2 μg/mL was used for nuclei staining. A fluorescence microscope (Leica DM 6000) was utilized for fluorescence detection (40× magnification). LAS-X software allowed acquiring and processing all the fluorescence images, which are representative of three separate experiments.

| IC50 (MDA-MB-231 cells) [µM] | IC50 (MCF-7 cells) [µM] | Structure (SMILES) | F-actin depolymerizing effect [1] | Actin polymerization, final fluorescence value of reaction curve [2] | IC50 (MCF-10A cells) [µM] | F-actin depolymerization, final fluorescence value of reaction curve ([1]; monitored 1 h, vehicle 20,000 RFU) | Effect on actin organization (immunofluorescence) [3] |
| --- | --- | --- | --- | --- | --- | --- | --- |
| – | – | C=C1[C@@H](C)[C@H]2[C@H](Cc3ccccc3)NC(=O)[C@]23OC(=O)/C=C/[C@H](O)CCC[C@@H](C)C/C=C/[C@H]3[C@@H]1O [CB, Cytochalasin B, reference compound] | does not induce the F-actin depolymerization | approximately 13,000 RFU | – | – | – |
| 43.5 ± 1.21 | > 100 | Cc1ccc(C)c2c1c1cc(Br)ccc1n2C(=O)OC(C)(C)C [Compound 1] | – | – | > 100 | – | – |
| 8.19 ± 0.26 | > 100 | COc1ccc2c(c1)c1c(C)ccc(C)c1n2C(=O)OC(C)(C)C [Compound 2] | – | – | 89.16 ± 0.47 | – | – |
| 6.59 ± 0.68 | > 100 | Cc1ccc(C)c2c1[nH]c1ccc(O)cc12 [Compound 5, 5,8-Dimethyl-9H-carbazol-3-ol] | – | – | > 100 | – | – |
| – | – | C/C1=C/C(=O)O[C@@H]2C[C@@H](CC[C@H](C)/C=C\C=C\CC1)O[C@@](O)([C@@H]1CSC(=O)N1)C2 [LA, Latrunculin A, reference compound] | – | about 8000 RFU | – | about 8000 RFU | the cells underwent an important shape change |

| Structure (SMILES) | IC50 (MDA-MB-231 cells) [µM] | IC50 (MCF-7 cells) [µM] | F-actin depolymerizing effect [1] | Actin polymerization, final fluorescence value of reaction curve [2] | IC50 (MCF-10A cells) [µM] | F-actin depolymerization, final fluorescence value of reaction curve ([1]; monitored 1 h, vehicle 20,000 RFU) | Effect on actin organization (immunofluorescence) [3] |
| --- | --- | --- | --- | --- | --- | --- | --- |
| Cc1c2ccncc2c(C)c2c1[nH]c1ccccc12 [Ellipticine, reference compound] | 1.92 ± 0.38 | – | – | – | 1.12 ± 0.51 | – | – |
